Assay results as given in patent publication US8048825B2, “Haloalkylsulfonanilide derivatives or salt thereof, herbicide comprising the derivatives as active ingredient, and use of the herbicide” (Nihon Nohyaku Co., Ltd., priority 2006, dated 2011).

What was measured:
Type in all cases: in vivo
Lindernia procumbens [1] = experiment: Herbicidal efficacy on paddy field weeds of pre-emergence stage (Pre), Test Example 1; conditions: 1000 g/ha as active ingredient, examined after 21 days
Protocol: (§1) 75 cm^2 plastic pots were filled with the soil (clay loam). Seeds of Scirpus juncoides, a paddy weed, were planted, and they were covered with 75 cm^3 of soil mixed with seeds of Lindernia procumbens and then filled with water depth of 5 cm. Next day, predetermined effective dosage (1000 g/ha as an active ingredient) of formulations comprising a compound of the present invention as an active ingredient which were prepared following Formulation Examples 1 to 4 was diluted with water and applied dropwise to the surface of the water. Then, they were brought up in a greenhouse and the herbicidal effect was examined after 21 days from the treatment by comparing with the result of an untreated group according to the following criteria. In the table, “-” means that the test was not performed.
(§2) Criteria for herbicidal efficacy (growth inhibiting degree) and phytotoxicity. • 5 . . . 100% herbicidal effect, phytotoxicity. • 4 . . . 90%-99% herbicidal effect, phytotoxicity. • 3 . . . 70%-89% herbicidal effect, phytotoxicity. • 2 . . . 40%-69% herbicidal effect, phytotoxicity. • 1 . . . 1%-39% herbicidal effect, phytotoxicity. • 0 . . . 0% herbicidal effect, phytotoxicity.

Scirpus juncoides [2] = experiment: as above; conditions: 1000 g/ha as active ingredient, examined after 21 days
Protocol: as §1, §2

Lindernia procumbens [3] = experiment: Herbicidal effect on paddy field weeds of post-emergence stage (Post), Test Example 2; conditions: one-leaf stage, 1000 g/ha as active ingredient, examined after 21 days
Text: as §2
(§3) 75 cm^2 plastic pots were filled with the soil (clay loam). Seeds of Scirpus juncoides and Echinochloa crus-galli, paddy weeds, were planted, and they were covered with 75 cm^3 of soil mixed with seeds of Lindernia procumbens and then filled with water depth of 5 cm and they were brought up in a greenhouse. When the test plants were at one-leaf stage, predetermined effective dosage (1000 g/ha as an active ingredient) of formulations comprising a compound of the present invention as an active ingredient was applied to the pot water. Then, they were brought up in a greenhouse and the herbicidal efficacy was examined after 21 days from the treatment by comparing with the result of an untreated group according to the criteria of Test Example 1. In the table, “-” means that the test was not performed.

Scirpus juncoides [4] = experiment: as above; conditions: one-leaf stage, 1000 g/ha as active ingredient, examined after 21 days
Text: as §2, §3

Structure (SMILES)	Lindernia procumbens pre (herbicidal effect) (Lindernia procumbens [1])	Scirpus juncoides pre (herbicidal effect) (Scirpus juncoides [2])	Lindernia procumbens post (herbicidal effect) (Lindernia procumbens [3])	Scirpus juncoides post (herbicidal effect) (Scirpus juncoides [4])
CCC1(CC(C)C)CCN(Cc2ccccc2N(C(=O)OCC(C)(C)C)S(=O)(=O)C(F)(F)F)C(=O)O1 (racemic) [Compound 1-423]	5 (100% herbicidal effect, phytotoxicity)	4 (90%-99% herbicidal effect, phytotoxicity)	5 (100% herbicidal effect, phytotoxicity)	4 (90%-99% herbicidal effect, phytotoxicity)
CC1(c2ccccc2F)CCN(Cc2ccccc2NS(=O)(=O)C(F)(F)F)C(=O)O1 (racemic) [Compound 1-428]	5 (100% herbicidal effect, phytotoxicity)	5 (100% herbicidal effect, phytotoxicity)	5 (100% herbicidal effect, phytotoxicity)	4 (90%-99% herbicidal effect, phytotoxicity)
COC(=O)N(c1ccccc1CN1CCC(C)(c2ccccc2F)OC1=O)S(=O)(=O)C(F)(F)F (racemic) [Compound 1-429]	5 (100% herbicidal effect, phytotoxicity)	4 (90%-99% herbicidal effect, phytotoxicity)	5 (100% herbicidal effect, phytotoxicity)	4 (90%-99% herbicidal effect, phytotoxicity)
CN(c1ccccc1CN1CCC(C)(C)OC1=O)S(=O)(=O)C(F)(F)F [Compound 1-54]		4 (90%-99% herbicidal effect, phytotoxicity)		4 (90%-99% herbicidal effect, phytotoxicity)
CN(c1ccccc1CN1CCC2(CCCC2)OC1=O)S(=O)(=O)C(F)(F)F [Compound 1-145]		4 (90%-99% herbicidal effect, phytotoxicity)		4 (90%-99% herbicidal effect, phytotoxicity)
CC(C)COC(=O)N(c1ccccc1CN1CCC(C2CC2)(C2CC2)OC1=O)S(=O)(=O)C(F)(F)F [Compound 1-154]	4 (90%-99% herbicidal effect, phytotoxicity)			
CC(C)COC(=O)N(c1ccccc1CN1CCC(C)(c2ccccc2)OC1=O)S(=O)(=O)C(F)(F)F (stereo not drawn) [Compound 1-165]	4 (90%-99% herbicidal effect, phytotoxicity)	4 (90%-99% herbicidal effect, phytotoxicity)		4 (90%-99% herbicidal effect, phytotoxicity)
CN(c1ccccc1CN1CCC(C)(c2ccccc2)OC1=O)S(=O)(=O)C(F)(F)F (stereo not drawn) [Compound 1-167]		4 (90%-99% herbicidal effect, phytotoxicity)		
CN(c1ccccc1CN1CCC(c2ccccc2)(c2ccccc2)OC1=O)S(=O)(=O)C(F)(F)F [Compound 1-224]	4 (90%-99% herbicidal effect, phytotoxicity)			
CC(C)COC(=O)N(c1ccccc1CN1CCC(c2ccccc2)OC1=O)S(=O)(=O)C(F)(F)F (stereo not drawn) [Compound 1-244]	5 (100% herbicidal effect, phytotoxicity)		5 (100% herbicidal effect, phytotoxicity)	
CN(c1ccccc1CN1CCC(c2ccccc2)OC1=O)S(=O)(=O)C(F)(F)F (stereo not drawn) [Compound 1-246]	5 (100% herbicidal effect, phytotoxicity)			
CC(C)COC(=O)N(c1ccccc1CN1CCC(c2ccccc2F)OC1=O)S(=O)(=O)C(F)(F)F (stereo not drawn) [Compound 1-255]	5 (100% herbicidal effect, phytotoxicity)		5 (100% herbicidal effect, phytotoxicity)	
CN(c1ccccc1CN1CCC(c2ccccc2F)OC1=O)S(=O)(=O)C(F)(F)F (stereo not drawn) [Compound 1-257]	5 (100% herbicidal effect, phytotoxicity)	4 (90%-99% herbicidal effect, phytotoxicity)	5 (100% herbicidal effect, phytotoxicity)	
CCOCN(c1ccccc1CN1CC(C)(C)C(c2ccccc2)OC1=O)S(=O)(=O)C(F)(F)F (stereo not drawn) [Compound 1-270]	5 (100% herbicidal effect, phytotoxicity)		5 (100% herbicidal effect, phytotoxicity)	4 (90%-99% herbicidal effect, phytotoxicity)
CN(c1ccccc1CN1CCC(c2c(Cl)cccc2Cl)OC1=O)S(=O)(=O)C(F)(F)F (stereo not drawn) [Compound 1-279]	5 (100% herbicidal effect, phytotoxicity)		5 (100% herbicidal effect, phytotoxicity)	4 (90%-99% herbicidal effect, phytotoxicity)
CCOCN(c1ccccc1CN1CCC(c2c(Cl)cccc2Cl)OC1=O)S(=O)(=O)C(F)(F)F (stereo not drawn) [Compound 1-281]	5 (100% herbicidal effect, phytotoxicity)		5 (100% herbicidal effect, phytotoxicity)	4 (90%-99% herbicidal effect, phytotoxicity)
Cc1ccccc1C1CCN(Cc2ccccc2N(C)S(=O)(=O)C(F)(F)F)C(=O)O1 (stereo not drawn) [Compound 1-290]	5 (100% herbicidal effect, phytotoxicity)		5 (100% herbicidal effect, phytotoxicity)	4 (90%-99% herbicidal effect, phytotoxicity)
CN(c1ccccc1CN1CCC(c2ccccc2C(F)(F)F)OC1=O)S(=O)(=O)C(F)(F)F (stereo not drawn) [Compound 1-301]	5 (100% herbicidal effect, phytotoxicity)		5 (100% herbicidal effect, phytotoxicity)	
CN(c1ccccc1CN1CCC(c2ccccc2Cl)OC1=O)S(=O)(=O)C(F)(F)F (stereo not drawn) [Compound 1-312]	5 (100% herbicidal effect, phytotoxicity)		5 (100% herbicidal effect, phytotoxicity)	
CCOCN(c1ccccc1CN1CCC(c2ccccc2Cl)OC1=O)S(=O)(=O)C(F)(F)F (stereo not drawn) [Compound 1-314]	5 (100% herbicidal effect, phytotoxicity)	4 (90%-99% herbicidal effect, phytotoxicity)	5 (100% herbicidal effect, phytotoxicity)	
CCC1(c2ccccc2)CCN(Cc2ccccc2N(C)S(=O)(=O)C(F)(F)F)C(=O)O1 (stereo not drawn) [Compound 1-323]	5 (100% herbicidal effect, phytotoxicity)		5 (100% herbicidal effect, phytotoxicity)	
O=C1OC(c2c(F)cccc2F)CCN1Cc1ccccc1NS(=O)(=O)C(F)(F)F (stereo not drawn) [Compound 1-349]	5 (100% herbicidal effect, phytotoxicity)	5 (100% herbicidal effect, phytotoxicity)	5 (100% herbicidal effect, phytotoxicity)	
CCOCN(c1ccccc1CN1CCC(c2c(C)cccc2C)OC1=O)S(=O)(=O)C(F)(F)F (stereo not drawn) [Compound 1-369]	5 (100% herbicidal effect, phytotoxicity)		5 (100% herbicidal effect, phytotoxicity)	4 (90%-99% herbicidal effect, phytotoxicity)
O=C1OCCCN1Cc1ccccc1NS(=O)(=O)C(F)(F)F [Compound No. 1-1, 3-[2-(trifluoromethanesulfonylamino)benzyl]-[1,3]-oxazinan-2-one]	4 (90%-99% herbicidal effect, phytotoxicity)	4 (90%-99% herbicidal effect, phytotoxicity)		4 (90%-99% herbicidal effect, phytotoxicity)
CC1CCN(Cc2ccccc2NS(=O)(=O)C(F)(F)F)C(=O)OC1 (stereo not drawn) [Compound No. 2-23, 6-methyl-3-[2-(trifluoromethanesulfonylamino)benzyl]-[1,3]-oxazepan-2-one]	4 (90%-99% herbicidal effect, phytotoxicity)	4 (90%-99% herbicidal effect, phytotoxicity)		4 (90%-99% herbicidal effect, phytotoxicity)
